Test results from article PMC7508162 (Frontiers in Pharmacology, 2020).

Legend:
[1] = biological target: T1, NPP4 (Homo sapiens, UniProt Q9Y6X5); experiment: NPP4 assay with AP4A as substrate, luciferin-luciferase detection; format: biochemical; details: for inhibition at 10 µM: 10 µM test compound; for Ki: 20 µM AP4A, read-out: Ki ± SEM
T1 construct: 1.4 µg of NPP4 (soluble form expressed in insect cells and purified); made in house; host or cells: Sf9 insect cells
T1 sequence (Q9Y6X5 16-407 limits assumed): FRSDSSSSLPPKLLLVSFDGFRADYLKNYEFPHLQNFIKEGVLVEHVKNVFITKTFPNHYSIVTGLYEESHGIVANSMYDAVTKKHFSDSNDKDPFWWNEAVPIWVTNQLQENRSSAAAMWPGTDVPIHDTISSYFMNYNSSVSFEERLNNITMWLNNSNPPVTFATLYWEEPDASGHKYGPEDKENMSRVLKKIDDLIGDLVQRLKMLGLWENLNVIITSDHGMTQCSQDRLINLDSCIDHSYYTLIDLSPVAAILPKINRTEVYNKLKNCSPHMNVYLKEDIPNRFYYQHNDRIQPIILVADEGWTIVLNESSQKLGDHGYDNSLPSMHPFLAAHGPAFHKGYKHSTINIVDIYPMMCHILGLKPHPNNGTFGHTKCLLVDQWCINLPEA
Description: Soluble NPP4 was expressed in Sf9 insect cells as recently described in detail ([Lopez et al., 2020]). Diadenosine tetraphosphate (AP4A) was employed as a substrate which is cleaved by NPP4 to ATP and AMP. The reaction product ATP was quantified by luciferin-luciferase reaction ([Lopez et al., 2020]). A mixture of 1.4 µg of NPP4 (soluble form expressed in insect cells and purified) ([Lopez et al., 2020]), 10 µM of test compound, 2 % DMSO, and 20 µM of AP4A as a substrate were incubated for 60 min at 37°C with gentle shaking. The reaction was terminated by heating at 90°C for 5 min, and after cooling down on ice, 50 µl of D-luciferin dissolved in buffer (300 mM Tris-HCl, 15 mM MgCl2, 100 ng D-luciferin, pH 7.8) and 50 µl of luciferase (50 ng dissolved in H2O) were added. The firefly luciferase reacts with D-luciferin in the presence of ATP produced by NPP4. The resulting luminescence was measured between 10–14 min at 560 nm using a BMG PheraStar FS plate reader (BMG Labtech GmbH, Ortenberg, Germany).

[2] = biological target: T2, NTPDase3 (Homo sapiens, UniProt O75355); experiment: Malachite green assay for NTPDase3; format: biochemical; design: expressed in transfected cells; host or cells: COS-7 cell membrane preparations; details: ATP 50 µM, recombinant COS-7 cell membrane preparation, read-out: Ki ± SEM
T2 sequence (O75355 1-529): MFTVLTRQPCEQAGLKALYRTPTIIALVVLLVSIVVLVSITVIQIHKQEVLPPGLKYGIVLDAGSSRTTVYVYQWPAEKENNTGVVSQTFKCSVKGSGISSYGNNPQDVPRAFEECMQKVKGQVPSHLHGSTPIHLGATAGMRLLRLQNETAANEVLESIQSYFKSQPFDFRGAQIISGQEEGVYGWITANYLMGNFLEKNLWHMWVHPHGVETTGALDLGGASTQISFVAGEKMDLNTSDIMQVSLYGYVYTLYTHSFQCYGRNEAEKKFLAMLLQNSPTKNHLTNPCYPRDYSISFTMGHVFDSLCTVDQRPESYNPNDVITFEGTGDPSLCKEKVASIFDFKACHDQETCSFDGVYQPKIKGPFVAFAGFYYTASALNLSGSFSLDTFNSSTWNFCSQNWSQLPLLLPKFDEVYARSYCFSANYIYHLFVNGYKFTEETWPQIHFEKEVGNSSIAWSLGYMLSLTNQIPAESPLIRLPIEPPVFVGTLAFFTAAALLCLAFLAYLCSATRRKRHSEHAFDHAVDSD
Description: The enzymatic activity assay was determined essentially as previously described ([Cogan et al., 1999]) with a few adaptations. The reaction buffer contained 10 mM HEPES, 2 mM CaCl2, 1 mM MgCl2, pH 7.4 in a final volume of 50 μl in transparent 96-well half area plates. For CD39 (NTPDase1), we made use of human umbilical cord membranes preparations which express high levels of the enzyme. For the other human NTPDase isoenzymes, we had to resort to recombinant expression. Human umbilical cord membrane preparations (250 ng) natively expressing high amounts of CD39, or the respective recombinant COS-7 cell membrane preparations expressing the appropriate NTPDase isoenzyme (ca. 100 ng of protein depending on enzyme activity) ([Sévigny et al., 1997]; [Lecka et al., 2013]) with or without inhibitor were preincubated at 37°C and gentle shaking (Eppendorf Thermomixer comfort at 500 rpm) for 5 min. The amount of enzyme preparation was adjusted to ensure 10–20% of substrate conversion. […] ([Kukulski et al., 2005]). After 15 min of incubation at 37°C with gentle shaking, the reaction was stopped by adding the detection reagents (20 µl malachite green solution, 0.6 mM, and 30 µl ammonium molybdate solution, 20 mM, in sulfuric acid, 1.5 M). The released (inorganic) phosphate was quantified after 20 min of gentle shaking at 25°C by measuring the absorption of the malachite green-phosphomolybdate complex at 600 nm using a BMG PheraStar FS plate reader (BMG Labtech GmbH, Ortenberg, Germany). The corrected absorption was calculated by subtracting the absorption of the negative control samples, which were incubated with denatured enzyme (90°C, 15 min), and the inhibition was calculated as follows:
% Inhibition=(B−T)/B*100% […]
Full concentration-inhibition curves were determined with inhibitor concentrations ranging from 0.1 to 300 µM in the presence of 2% DMSO. Three independent experiments were performed (n = 3) and curves were calculated by the GraphPad Prism 8 software. The Ki value was calculated using the Cheng-Prusoff equation for competitive inhibitors: […]

Row | SMILES | inhibition at 10 µM [1] [%] | Ki [1] [µM] | Ki [2] [µM]
1 | CCN(CC)c1ncnc2c1ncn2[C@@H]1O[C@H](COP(=O)(O)OP(=O)(O)C(Br)(Br)P(=O)(O)O)[C@@H](O)[C@H]1O [ARL67156, (Dibromo((((((2R,3S,4R,5R)-5-(6-(diethylamino)-9H-purin-9-yl)-3,4-dihydroxytetrahydrofuran-2-yl)methoxy)-(hydroxy)-phosphoryl)oxy)(hydroxy)phosphoryl)methyl)-phosphonic Acid, reference compound] | -1 | > 10 | 7.94 ± 1.36
2 | CCCCSc1nc2c(N)ncnc2n1[C@@H]1O[C@H](COP(=O)(O)OP(=O)(O)C(Br)(Br)P(=O)(O)O)[C@@H](O)[C@H]1O [Compound 31, (((((((2R,3S,4R,5R)-5-(6-Amino-8-(butylthio)-9H-purin-9-yl)-3,4-dihydroxytetrahydrofuran-2-yl)methoxy)(hydroxy)-phosphoryl)oxy)(hydroxy)phosphoryl)dibromomethyl)-phosphonic Acid] | 2 | > 10 | 1.54 ± 0.34
3 | CCCCNc1nc2c(NC)ncnc2n1[C@@H]1O[C@H](COP(=O)(O)OP(=O)(O)C(Br)(Br)P(=O)(O)O)[C@@H](O)[C@H]1O [Compound 33, (Dibromo((((((2R,3S,4R,5R)-5-(8-(butylamino)-6-(methylamino)-9H-purin-9-yl)-3,4-dihydroxy-tetrahydrofuran-2-yl)methoxy)(hydroxy)phosphoryl)oxy)-(hydroxy)phosphoryl)methyl)-phosphonic Acid] | 4 | > 10 | 7.8 ± 1.34
